Consider 27 compounds from patent US20230031406A1, “COMPOUNDS AND COMPOSITIONS FOR TREATING CONDITIONS ASSOCIATED WITH NLRP ACTIVITY” (Novartis AG, priority 2018, published 2023).

This experiment concerns PMA-differentiated THP-1 cells. In words: IL-1β production in PMA-differentiated THP-1 cells stimulated with gramicidin (hTHP-1 assay containing 2% fetal bovine serum; Procedures 1 and 2). The settings on record: 2% fetal bovine serum. It counts as cell-based, human. Summed up: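 Compound titrations in 0.37% final DMSO were added to THP-1 cells that had been plated after 16-18 h PMA treatment, 50,000 per well in 2% FBS. One hour later the cells received gramicidin (5 μM, 2 h) and were centrifuged. HTRF detected IL-1β in the collected supernatants.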

The mark [1] stands for this setting: Homo sapiens, THP-1, Table B2, numeric bounds, read-out: hTHP-1 IC50.
The mark [2] stands for this setting: Homo sapiens, THP-1, Table B3, hTHP-1 assay, class symbols, read-out: IC50.
Where [3] appears, read: Homo sapiens, THP-1, Table B2, class symbols, read-out: hTHP-1 IC50.
Where [4] appears, read: Table B1, class symbols, read-out: Average IC50 of compounds in hTHP-1 assay: hTHP-1 IC50.
[5] abbreviates: Homo sapiens, THP-1, Table B1, class symbols, read-out: Average IC50 of compounds in hTHP-1 assay: hTHP-1 IC50.
Where [6] appears, read: Homo sapiens, THP-1, Table B3, hTHP-1 assay, numeric values, read-out: IC50.
[7] abbreviates: Table B2, class symbols, read-out: hTHP-1 IC50.

Each structure is given as a SMILES string. Read-outs that look alike come from different tables or passages of the source.

As usually defined, the IC50 is the midpoint of a concentration-inhibition curve. Take `CC(C)n1nc(S(N)(=O)=NC(=O)Nc2c3c(nc4c2CCC4(C)C)CCC3)cc1CO` (single isomer, unassigned) [Compound 652b]: under setting [1], the IC50 is over 30 µM. For the compound `CC1(C)CCc2c1nc1c(c2NC(=O)N=S(N)(=O)c2sc([C@](C)(O)CO)nc2CO)CCC1` (stereo partly drawn) [Example 600, 2-((R)-1,2-dihydroxypropan-2-yl)-N′-((3,3-dimethyl-1,2,3,5,6,7-hexahydrodicyclopenta[b,e]pyridin-8-yl)carbamoyl)-4-(hydroxymethyl)thiazole-5-sulfonimidamide], the concentration for half-maximal inhibition (IC50) under setting [2] lay in the range of 0.2 to 1 µM. Still for that read-out and setting: the same measure for `CC(C)n1nc(S(N)(=O)=NC(=O)Nc2c3c(nc4c2CC[C@H]4C)CCC3)cc1CO` (single isomer, unassigned) [Example 643, (R) or (S)-5-(hydroxymethyl)-1-isopropyl-N′-(((R)-3-methyl-1,2,3,5,6,7-hexahydrodicyclopenta[b,e]pyridin-8-yl)carbamoyl)-1H-pyrazole-3-sulfonimidamide]: 1 to 5 µM.

Consider `NS(=O)(=NC(=O)Nc1c2c(nc(C3CC3)c1C1CC1)CCC2)c1ccn(C(F)F)n1` (stereo not drawn) [Compound 728], for which, under setting [3], the IC50 is 1 to 5 µM. With `CC1CCc2c1nc1c(c2NC(=O)N=S(N)(=O)c2ncc(C(C)(C)O)s2)CCC1` (stereo not drawn) [Compound 140, 5-(2-hydroxypropan-2-yl)-N′-((3-methyl-1,2,3,5,6,7-hexahydrodicyclopenta[b,e]pyridin-8-yl)carbamoyl)thiazole-2-sulfonimidamide], the half-maximal inhibitory concentration (IC50) under setting [4] lay within 0.04 to 0.2 µM.

As for `Cc1sc(S(N)(=O)=NC(=O)Nc2c3c(nc4c2CCC4)CCC3)cc1C(C)(C)O` (stereo not drawn) [Compound 107, N′-((1,2,3,5,6,7-hexahydrodicyclopenta[b,e]pyridin-8-yl)carbamoyl)-4-(2-hydroxypropan-2-yl)-5-methylthiophene-2-sulfonimidamide], the concentration for half-maximal inhibition (IC50) under setting [5] was in the range of 0.2 to 1 µM. As to `CC(=O)c1csc(S(N)(=O)=NC(=O)Nc2c3c(nc4c2CC[C@H]4C)CCC3)c1` (stereo partly drawn) [Example 627, 4-Acetyl-N′-(((R)-3-methyl-1,2,3,5,6,7-hexahydrodicyclopenta[b,e]pyridin-8-yl)carbamoyl)thiophene-2-sulfonimidamide], the IC50 under setting [2] is 0.2 to 1 µM. For the compound `CC1Cc2nc3c(c(NC(=O)N=S(N)(=O)c4cnc(C(C)(C)O)s4)c2C1)CCC3` (stereo not drawn) [Compound 152, 2-(2-hydroxypropan-2-yl)-N′-((2-methyl-1,2,3,5,6,7-hexahydrodicyclopenta[b,e]pyridin-8-yl)carbamoyl)thiazole-5-sulfonimidamide], the concentration for half-maximal inhibition (IC50) under setting [5] lay within 0.2 to 1 µM. As for `CC(C)(O)c1ncc(S(N)(=O)=NC(=O)Nc2nc3c(c4c2CCC4)CCC3)s1` (stereo not drawn) [Compound 677, N′-((1,2,3,5,6,7-hexahydrodicyclopenta[b,d]pyridin-5-yl)carbamoyl)-2-(2-hydroxypropan-2-yl)thiazole-5-sulfonimidamide], the IC50 under setting [3] lay in the range of 1 to 5 µM.

In the case of `CC1(C)CCc2c1nc1c(c2NC(=O)N=S(N)(=O)c2ccn(C(F)F)n2)CCC1` (stereo not drawn) [Compound 122, 1-(difluoromethyl)-N′-((3,3-dimethyl-1,2,3,5,6,7-hexahydrodicyclopenta[b,e]pyridin-8-yl)carbamoyl)-1H-pyrazole-3-sulfonimidamide], the concentration for half-maximal inhibition (IC50) under setting [5] is 0.2 to 1 µM. With `Cc1nc2c(c(NC(=O)N=S(N)(=O)c3cnc(C(C)(O)CO)s3)c1C(C)C)CCC2` (stereo not drawn) [Compound 627, 2-(1,2-Dihydroxypropan-2-yl)-N′-((3-isopropyl-2-methyl-6,7-dihydro-5H-cyclopenta[b]pyridin-4-yl)carbamoyl)thiazole-5-sulfonimidamide], the half-inhibitory concentration (IC50) under setting [3] lay within 0.2 to 1 µM. With `Cc1nc2c(c(NC(=O)N=[S@@](N)(=O)c3cnc(C(C)(C)O)s3)c1C1CC1)CCC2` [Example 581, (R)-N′-((3-cyclopropyl-2-methyl-6,7-dihydro-5H-cyclopenta[b]pyridin-4-yl)carbamoyl)-2-(2-hydroxypropan-2-yl)thiazole-5-sulfonimidamide], the IC50 under setting [6] is over 30 µM. Take `CC1CCc2c1nc1c(c2NC(=O)N=S(N)(=O)c2ncc(C(C)(C)O)s2)CCC1` (single isomer, unassigned) [Compound 140aa, (R,R) or (R,S)-5-(2-hydroxypropan-2-yl)-N′-((3-methyl-1,2,3,5,6,7-hexa-hydrodicyclo-penta[b,e]pyridin-8-yl)carbamoyl)thiazole-2-sulfonimidamide]: the 50% inhibitory concentration (IC50) under setting [5] lay within 0.04 to 0.2 µM. As to `C[C@@H]1CCc2c1nc1c(c2NC(=O)N=S(N)(=O)c2nn(C(F)F)cc2F)CCC1` (stereo partly drawn) [Compound 718a], the 50% inhibitory concentration (IC50) under setting [3] was 0.04 to 0.2 µM.

As to `CC(C)(O)c1csc(S(N)(=O)=NC(=O)Nc2c3c(nc(C(F)(F)F)c2C2CC2)CCC3)c1` (single isomer, unassigned) [Example 645, (S) or (R)-N′-((3-cyclopropyl-2-(trifluoromethyl)-6,7-dihydro-5H-cyclopenta[b]pyridin-4-yl)carbamoyl)-4-(2-hydroxypropan-2-yl) thiophene-2-sulfonimidamide], under “Table B3, hTHP-1 assay, class symbols, read-out: IC50”, the 50% inhibitory concentration (IC50) lay in the range of 5 to 30 µM. With `CCn1ccc(S(N)(=O)=NC(=O)Nc2c3c(nc4c2CCC4(C)C)CCC3)n1` (single isomer, unassigned) [Compound 697a, (S) or (R)-N′-((3,3-dimethyl-1,2,3,5,6,7-hexahydrodicyclopenta [b,e]pyridin-8-yl)carbamoyl)-1-ethyl-1H-pyrazole-3-sulfonimidamide], under setting [7], the IC50 is 5 to 30 µM. With `CCn1ccc([S@](N)(=O)=NC(=O)Nc2c(C)c(C(F)(F)F)nc3c2CCC3)n1` [Compound 731b], the 50% inhibitory concentration (IC50) under setting [3] lay within 0.2 to 1 µM. `CCn1nc(S(N)(=O)=NC(=O)Nc2c3c(nc4c2CCC4(C)C)CCC3)cc1CO` (single isomer, unassigned) [Example 725, (S) or (R)-N′-((3,3-dimethyl-1,2,3,5,6,7-hexahydrodicyclopenta[b,e]pyridin-8-yl)carbamoyl)-1-ethyl-5-(hydroxymethyl)-1H-pyrazole-3-sulfonimidamide]: the IC50 under setting [6] is over 30 µM.

For the compound `CCn1cc(F)c(S(N)(=O)=NC(=O)Nc2c(C)c(CC(F)(F)F)nc3c2CCC3)n1` (single isomer, unassigned) [Example 718, (S) or (R)-1-ethyl-4-fluoro-N′-((3-methyl-2-(2,2,2-trifluoroethyl)-6,7-dihydro-5H-cyclopenta[b]pyridin-4-yl)carbamoyl)-1H-pyrazole-3-sulfonimidamide], under setting [6], the 50% inhibitory concentration (IC50) is over 30 µM. Consider `Cc1c(CO)nc2c(c1NC(=O)N=S(N)(=O)c1cnc(C(C)(C)O)s1)CCC2` (stereo not drawn) [Compound 619, N-((2-(hydroxymethyl)-3-methyl-6,7-dihydro-5H-cyclopenta[b]pyridin-4-yl)carbamoyl)-2-(2-hydroxypropan-2-yl)thiazole-5-sulfonimidamide], for which, under setting [3], the IC50 was in the range of 5 to 30 µM. For `CCn1cc(Cl)c(S(N)(=O)=NC(=O)Nc2c(C)c(C(F)(F)F)nc3c2CCC3)n1` (single isomer, unassigned) [Compound 729b, (R) or (S)-4-Chloro-1-ethyl-N′-((3-methyl-2-(trifluoromethyl)-6,7-dihydro-5H-cyclopenta[b]pyridin-4-yl)carbamoyl)-1H-pyrazole-3-sulfonimidamide], the IC50 under setting [7] was 0.04 to 0.2 µM. In the case of `CC(C)c1c(-c2ccccc2)nc2c(c1NC(=O)N=S(N)(=O)c1cnc(C(C)(C)O)s1)CCC2` (single isomer, unassigned) [Compound 145b, (S) or (R)-2-(2-hydroxy-propan-2-yl)-N′-((3-isopropyl-2-phenyl-6,7-dihydro-5H-cyclopenta[b]pyridin-4-yl)carbamoyl)thiazole-5-sulfonimidamide], the half-maximal inhibitory concentration (IC50) under setting [4] is 1 to 5 µM. Turning to `Cc1sc(S(N)(=O)=NC(=O)Nc2c3c(nc4c2CCC4C)CCC3)nc1C(C)(C)O` (single isomer, unassigned) [Compound 104b, (S,R/S) or (R,R/S)-4-(2-hydroxypropan-2-yl)-5-methyl-N′-((3-methyl-1,2,3,5,6,7-hexahydrodicyclo-penta[b,e]pyridin-8-yl)carbamoyl)thiazole-2-sulfonimidamide], the IC50 under setting [4] lay within 5 to 30 µM.

In the case of `CC1CCc2c1nc1c(c2NC(=O)N=S(N)(=O)c2cc(C(C)(C)O)cs2)CCC1C` (single isomer, unassigned) [Compound 131e, (S,S,S) or (S,R,S) and (S,S,R) or (S,R,R)-N′-((3,5-dimethyl-1,2,3,5,6,7-hexahydro-dicyclopenta[b,e]pyridin-8-yl)carbamoyl)-4-(2-hydroxypropan-2-yl)thio-phene-2-sulfonimidamide], under setting [4], the IC50 fell in the range of 5 to 30 µM. Same read-out and setting: the same measure for `CC1CCc2c1nc1c(c2NC(=O)N=S(N)(=O)c2ncc(C(C)(C)O)s2)CCC1` (single isomer, unassigned) [Compound 140a, (R,R/S) or (S,R/S)-5-(2-hydroxypropan-2-yl)-N′-((3-methyl-1,2,3,5,6,7-hexa-hydrodicyclo-penta[b,e]pyridin-8-yl)carbamoyl)thiazole-2-sulfonimidamide]: 0.04 to 0.2 µM. For the compound `NS(=O)(=NC(=O)Nc1c2c(nc3c1CCC3)CCC2)c1nn(C(F)F)cc1F` (single isomer, unassigned) [Example 760, (S) or (R)-1-(difluoromethyl)-4-fluoro-N′-((1,2,3,5,6,7-hexahydrodicyclopenta[b,e]pyridin-8-yl)carbamoyl)-1H-pyrazole-3-sulfonimidamide], the 50% inhibitory concentration (IC50) (Homo sapiens, THP-1, Table B4, numeric bounds, read-out: hTHP-1 IC50) is over 30 µM. Consider `Cc1c(CC2CC2)nc2c(c1NC(=O)N=S(N)(=O)c1cc(C(C)(C)O)cs1)CCC2` (single isomer, unassigned) [Compound 665a, (S) or (R)-N′-((2-(cyclopropylmethyl)-3-methyl-6,7-dihydro-5H-cyclopenta[b]pyridin-4-yl)carbamoyl)-4-(2-hydroxypropan-2-yl)thiophene-2-sulfonimidamide], for which, under setting [1], the IC50 is over 30 µM.
